For six molecules, IC50 and inhibition results are on record in patent publication US10221144B2, “Antibacterial compounds having broad spectrum of activity” (priority 2014, dated 2019).

Common to all, as to type: biochemical
Experiment [1] deals with T1, E. coli Topoisomerase IV (Escherichia coli, UniProt P0AFI2+P20083).
T1 construct: purchased Inspiralis, UK
The experiment can be described thus: Topoisomerase IV decatenation assay (E. coli). The conditions noted are these: for inhibition at 50 µM: E. coli, conc. 50 μM, n/a = not active, read-out: % inhibition Topo IV. The essentials: (§1)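 Topo IV decatenation of kDNA (200 ng) with 0.5 U enzyme in HEPES-KOH pH 7.6 buffer containing 1 mM ATP and Mg acetate, 30 min at 37 °C. Single-concentration screen (200, 100 or 50 μM) in duplicate. Decatenated minicircles resolved on agarose, ethidium-stained band intensity expressed as % inhibition versus vehicle; IC50 from exponential-decay curve fit.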

Experiment [2] has as its target T2, S. aureus Topoisomerase IV (Staphylococcus aureus, UniProt P0C1S7+P0C1U9).
T2 construct: purchased Inspiralis, UK
The experiment can be described thus: Topoisomerase IV decatenation assay (S. aureus). The conditions noted are these: for inhibition at 50 µM: read-out: % inhibition Topo IV. The gist of the method: as §1

The target in experiment [3] is T3, E. coli DNA gyrase (Escherichia coli, UniProt P0AES4+P0AES6).
T3 construct: purchased Inspiralis, UK
The experiment can be described thus: DNA gyrase supercoiling assay (E. coli). The conditions noted are these: for inhibition at 50 µM: E. coli, conc. 50 μM, n/a = not active. The gist of the method:
(§2)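 Relaxed pBR322 (0.5 μg) supercoiled by E. coli (2 U) or S. aureus (1 U) gyrase, 30 min at 37° C; compounds at single 200, 100 or 50 μM, duplicate. Supercoiled band quantified on ethidium-stained agarose gel, expressed as % inhibition vs DMSO control; IC50 by two-parameter exponential decay fit.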

Experiment [4] concerns the target T4, S. aureus DNA gyrase (Staphylococcus aureus, UniProt P0A0K8+P20831).
T4 construct: purchased Inspiralis, UK
Put plainly: DNA gyrase supercoiling assay (S. aureus). The conditions noted are these: for inhibition at 50 µM: S. aureus, conc. 50 μM, n/a = not active. The essentials: as §2

Setting [5] is: S. aureus, conc. 50 μM, n/a = not active.

Read-outs that look alike come from different tables or passages of the source.

T2 sequence (P0C1S7 whole entry): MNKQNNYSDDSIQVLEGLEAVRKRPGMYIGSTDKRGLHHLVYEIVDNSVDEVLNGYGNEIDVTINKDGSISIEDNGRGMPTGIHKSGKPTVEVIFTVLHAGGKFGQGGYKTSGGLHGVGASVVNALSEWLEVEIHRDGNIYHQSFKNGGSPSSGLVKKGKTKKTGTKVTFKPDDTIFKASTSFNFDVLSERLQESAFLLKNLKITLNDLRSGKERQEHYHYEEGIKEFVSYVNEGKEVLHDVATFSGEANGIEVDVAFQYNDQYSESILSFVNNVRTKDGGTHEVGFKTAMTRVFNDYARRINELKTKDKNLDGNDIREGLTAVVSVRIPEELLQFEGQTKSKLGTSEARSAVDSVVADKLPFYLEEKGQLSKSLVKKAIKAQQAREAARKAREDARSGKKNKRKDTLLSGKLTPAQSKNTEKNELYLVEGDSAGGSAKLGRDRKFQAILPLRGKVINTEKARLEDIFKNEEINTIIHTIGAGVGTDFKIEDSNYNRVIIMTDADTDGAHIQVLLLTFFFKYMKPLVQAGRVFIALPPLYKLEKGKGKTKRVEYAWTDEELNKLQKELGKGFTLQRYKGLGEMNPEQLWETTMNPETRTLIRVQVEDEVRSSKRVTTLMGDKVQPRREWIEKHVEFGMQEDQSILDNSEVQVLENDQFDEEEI
T2 sequence (P0C1U9 whole entry): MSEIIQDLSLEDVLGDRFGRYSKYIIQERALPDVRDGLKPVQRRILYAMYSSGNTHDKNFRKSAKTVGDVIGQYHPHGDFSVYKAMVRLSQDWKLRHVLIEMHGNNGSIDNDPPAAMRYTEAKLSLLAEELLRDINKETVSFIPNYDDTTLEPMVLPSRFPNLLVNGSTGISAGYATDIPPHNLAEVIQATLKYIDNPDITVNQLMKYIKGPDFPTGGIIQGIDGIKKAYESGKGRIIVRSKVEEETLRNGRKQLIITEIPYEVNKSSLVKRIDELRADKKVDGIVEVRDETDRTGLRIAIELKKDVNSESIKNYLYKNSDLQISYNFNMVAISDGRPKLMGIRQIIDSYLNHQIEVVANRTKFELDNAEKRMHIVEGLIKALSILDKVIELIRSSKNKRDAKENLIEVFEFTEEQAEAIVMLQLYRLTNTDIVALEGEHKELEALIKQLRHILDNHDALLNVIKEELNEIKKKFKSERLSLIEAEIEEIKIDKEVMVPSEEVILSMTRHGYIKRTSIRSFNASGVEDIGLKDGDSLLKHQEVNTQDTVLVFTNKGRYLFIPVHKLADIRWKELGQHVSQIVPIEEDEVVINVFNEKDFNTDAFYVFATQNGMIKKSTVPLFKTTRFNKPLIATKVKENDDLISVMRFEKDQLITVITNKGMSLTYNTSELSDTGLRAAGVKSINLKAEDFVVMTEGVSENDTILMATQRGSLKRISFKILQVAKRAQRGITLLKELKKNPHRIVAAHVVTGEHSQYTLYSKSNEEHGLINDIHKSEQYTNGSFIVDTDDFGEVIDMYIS
T1 sequence (P20083 whole entry): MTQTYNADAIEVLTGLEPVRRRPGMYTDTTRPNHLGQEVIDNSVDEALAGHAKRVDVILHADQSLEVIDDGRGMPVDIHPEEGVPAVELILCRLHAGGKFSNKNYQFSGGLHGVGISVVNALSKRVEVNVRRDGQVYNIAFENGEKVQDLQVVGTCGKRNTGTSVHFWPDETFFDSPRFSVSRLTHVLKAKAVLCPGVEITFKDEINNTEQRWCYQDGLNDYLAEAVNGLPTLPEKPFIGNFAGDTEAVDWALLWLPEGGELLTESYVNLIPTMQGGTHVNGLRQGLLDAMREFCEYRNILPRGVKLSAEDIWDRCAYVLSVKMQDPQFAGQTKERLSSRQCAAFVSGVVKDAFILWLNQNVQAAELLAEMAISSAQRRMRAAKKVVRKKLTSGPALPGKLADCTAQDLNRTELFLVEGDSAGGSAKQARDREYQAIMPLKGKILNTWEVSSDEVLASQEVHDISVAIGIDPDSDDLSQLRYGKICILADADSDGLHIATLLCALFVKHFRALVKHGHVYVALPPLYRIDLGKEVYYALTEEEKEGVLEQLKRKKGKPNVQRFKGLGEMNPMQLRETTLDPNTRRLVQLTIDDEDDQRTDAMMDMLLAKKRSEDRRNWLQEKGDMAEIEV
T1 sequence (P0AFI2 whole entry): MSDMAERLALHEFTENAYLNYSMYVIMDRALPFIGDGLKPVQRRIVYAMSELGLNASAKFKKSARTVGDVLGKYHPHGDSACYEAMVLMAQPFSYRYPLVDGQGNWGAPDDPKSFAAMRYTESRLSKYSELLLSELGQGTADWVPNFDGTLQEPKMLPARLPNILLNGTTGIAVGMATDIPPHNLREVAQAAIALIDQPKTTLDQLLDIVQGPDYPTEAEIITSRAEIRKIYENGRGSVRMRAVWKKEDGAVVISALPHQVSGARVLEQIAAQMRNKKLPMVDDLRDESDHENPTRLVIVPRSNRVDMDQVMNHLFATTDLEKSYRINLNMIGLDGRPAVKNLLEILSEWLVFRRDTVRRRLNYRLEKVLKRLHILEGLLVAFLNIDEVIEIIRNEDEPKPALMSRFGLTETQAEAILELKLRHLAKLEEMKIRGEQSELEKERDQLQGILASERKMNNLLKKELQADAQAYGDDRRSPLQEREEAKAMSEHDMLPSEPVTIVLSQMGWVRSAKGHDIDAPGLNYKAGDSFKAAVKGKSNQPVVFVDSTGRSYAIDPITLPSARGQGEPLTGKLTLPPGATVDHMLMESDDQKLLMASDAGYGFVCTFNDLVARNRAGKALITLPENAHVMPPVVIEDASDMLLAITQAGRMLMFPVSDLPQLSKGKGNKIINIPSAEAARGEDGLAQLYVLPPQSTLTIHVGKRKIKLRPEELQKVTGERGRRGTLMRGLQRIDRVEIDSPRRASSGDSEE
T4 sequence (P0A0K8 whole entry): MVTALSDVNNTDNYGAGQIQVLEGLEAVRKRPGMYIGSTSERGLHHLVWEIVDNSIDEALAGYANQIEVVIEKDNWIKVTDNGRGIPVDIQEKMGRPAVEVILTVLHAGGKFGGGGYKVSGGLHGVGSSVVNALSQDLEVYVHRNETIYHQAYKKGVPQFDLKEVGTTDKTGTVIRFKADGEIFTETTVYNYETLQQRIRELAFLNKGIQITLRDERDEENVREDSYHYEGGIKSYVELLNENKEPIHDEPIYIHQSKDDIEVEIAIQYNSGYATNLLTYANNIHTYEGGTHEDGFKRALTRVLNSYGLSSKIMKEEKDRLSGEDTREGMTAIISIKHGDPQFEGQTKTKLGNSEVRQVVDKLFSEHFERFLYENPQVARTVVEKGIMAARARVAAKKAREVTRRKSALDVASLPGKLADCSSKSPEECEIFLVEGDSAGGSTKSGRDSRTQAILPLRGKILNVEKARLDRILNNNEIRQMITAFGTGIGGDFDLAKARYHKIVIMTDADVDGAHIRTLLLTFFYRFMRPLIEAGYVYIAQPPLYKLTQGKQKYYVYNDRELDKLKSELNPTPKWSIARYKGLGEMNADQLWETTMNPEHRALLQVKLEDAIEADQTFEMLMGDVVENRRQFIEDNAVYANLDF
T4 sequence (P20831 whole entry): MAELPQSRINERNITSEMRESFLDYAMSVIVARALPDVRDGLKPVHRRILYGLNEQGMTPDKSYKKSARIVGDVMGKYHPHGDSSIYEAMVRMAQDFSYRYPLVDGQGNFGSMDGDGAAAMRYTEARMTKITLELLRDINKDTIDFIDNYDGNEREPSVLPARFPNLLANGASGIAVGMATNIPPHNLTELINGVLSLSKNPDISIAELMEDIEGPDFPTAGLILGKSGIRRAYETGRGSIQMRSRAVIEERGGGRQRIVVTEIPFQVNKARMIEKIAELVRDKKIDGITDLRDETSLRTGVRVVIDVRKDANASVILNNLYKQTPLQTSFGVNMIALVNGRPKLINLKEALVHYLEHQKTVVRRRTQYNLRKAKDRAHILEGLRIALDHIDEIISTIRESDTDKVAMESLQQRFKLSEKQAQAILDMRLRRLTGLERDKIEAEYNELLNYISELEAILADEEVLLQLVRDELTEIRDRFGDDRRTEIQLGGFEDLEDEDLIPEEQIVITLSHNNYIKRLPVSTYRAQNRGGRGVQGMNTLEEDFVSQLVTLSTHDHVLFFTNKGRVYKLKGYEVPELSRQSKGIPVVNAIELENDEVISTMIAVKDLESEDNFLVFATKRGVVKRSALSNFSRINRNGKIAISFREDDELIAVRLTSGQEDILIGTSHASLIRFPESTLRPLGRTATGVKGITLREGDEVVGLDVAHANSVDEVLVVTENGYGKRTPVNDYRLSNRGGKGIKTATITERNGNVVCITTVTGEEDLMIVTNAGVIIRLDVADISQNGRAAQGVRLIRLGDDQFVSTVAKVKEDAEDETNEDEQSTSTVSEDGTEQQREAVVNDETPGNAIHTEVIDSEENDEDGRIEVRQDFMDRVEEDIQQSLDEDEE

As usually defined, the IC50 is the concentration needed to halve the response being measured. A high value points to weaker potency in that assay. Broadly, the inhibition is the percentage by which the read-out fell short of the control. As for `COc1ccc2nccc(N3CCC(NCc4cc5c([nH]4)c(=O)oc4ccc(F)cc45)CC3)c2n1` [Compound 188, 8-fluoro-2-({[1-(6-methoxy-1,5-naphthyridin-4-yl)piperidin-4-yl]amino}methyl)[1]benzopyrano[3,4-b]pyrrol-4(3H)-one], the IC50 in experiment [1] came to 300 nM; in experiment [2], 200 nM; in experiment [3], 90 nM; in experiment [4] it was 15 nM. Moreover, the inhibition at 50 µM in experiment [1] amounted to 92%; in experiment [2] (setting [5]), 98%; in experiment [3], 100%; in experiment [4], 97%.
As for `COc1ccc2ncc(F)c(N3CCC(NCc4cc5c([nH]4)c(=O)oc4ccc(F)cc45)CC3)c2n1` [Compound 192, 8-fluoro-2-({[1-(3-fluoro-6-methoxy-1,5-naphthyridin-4-yl)piperidin-4-yl]amino}methyl)[1]benzopyrano[3,4-b]pyrrol-4(3H)-one], the IC50 turned out to be 130 nM in experiment [1], 100 nM in experiment [2], 80 nM in experiment [3] and 17 nM in experiment [4]. In addition, the inhibition at 50 µM in experiment [1] was found to be 37%; in experiment [2] (setting [5]) it was 76%; in experiment [3], 70%; in experiment [4] it was 88%.
Turning to `COc1ccc2ncc(C#N)c(N3CCC(NCc4cc5c([nH]4)c(=O)oc4ccc(F)cc45)CC3)c2n1` [Compound 195, 4-(4-{[(8-fluoro-4-oxo-3,4-dihydro[1]benzopyrano[3,4-b]pyrrol-2-yl)methyl]amino}piperidin-1-yl)-6-methoxy-1,5-naphthyridine-3-carbonitrile], the IC50 is 300 nM in experiment [1], 100 nM in experiment [2], 140 nM in experiment [3] and 100 nM in experiment [4]. In addition, the inhibition at 50 µM came out at 100% in experiment [1], 100% in experiment [2] (setting [5]), 99% in experiment [3] and 100% in experiment [4].
Turning to `O=c1oc2ccc(F)cc2c2cc(CNC3CCN(c4nccc5nccnc45)CC3)[nH]c12` [Compound 196, 8-fluoro-2-({[1-(pyrido[3,4-b]pyrazin-5-yl)piperidin-4-yl]amino}methyl)[1]benzopyrano[3,4-b]pyrrol-4(3H)-one], the IC50 in experiment [1] stood at 2540 nM; in experiment [2], 390 nM; in experiment [3], 790 nM; in experiment [4] it was 160 nM. Also, the inhibition at 50 µM is 100% in experiment [1], 89% in experiment [2], 85% in experiment [3] and 83% in experiment [4].
For the molecule `COc1cnc2ccnc(N3CCC(NCc4cc5c([nH]4)c(=O)oc4ccc(F)cc45)CC3)c2n1` [Compound 199, 8-fluoro-2-({[1-(3-methoxypyrido[3,4-b]pyrazin-5-yl)piperidin-4-yl]amino}methyl)[1]benzopyrano[3,4-b]pyrrol-4(3H)-one], the inhibition at 50 µM is 100% in experiment [1], 100% in experiment [2], 90% in experiment [3] and 92% in experiment [4].
Regarding `COc1ccc2cc(F)nc(N3CCN(CC(O)CNc4cc(=O)oc5ccc(F)cc45)CC3)c2c1` (stereo not shown) [Compound 203, 6-fluoro-4-({3-[4-(3-fluoro-7-methoxyisoquinolin-1-yl)piperazin-1-yl]-2-hydroxypropyl}amino)-2H-1-benzopyran-2-one], the inhibition at 50 µM in experiment [1], in experiment [2], in experiment [3] and in experiment [4] was 100% each time.
